# Measured values from patent US20110124564A1, “NUCLEOLIN-BINDING PEPTIDES, NUCLEOLIN- BINDING LYTIC PEPTIDES, FUSION CONSTRUCTS AND METHODS OF MAKING AND USING SAME” (ESPERANCE PHARMACEUTICALS, INC., published 2011).
# Like-named read-outs stand apart in the source and are kept apart here. Residues, ends and D or L forms follow the SMILES beside them.
# What was measured:
# [1] = system: MDA-MB-435S breast cancer cells; type: cell-based, human; conditions: 4 h
# Method: Twelve different fusion constructs were analyzed for anti-cancer activity in vitro against MDA-MB-435S breast cancer cells and for hemolytic activity in vitro to human red blood cells. Fusion constructs of the following sequence were tested:
# (§1) The peptide conjugates were freshly dissolved in saline and added into cancer cell seeded multi-well plates at increasing concentrations of 0, 0.001, 0.01, 0.1, 1, 2, 5, 10 and 100 μM. Incubations were conducted for 4 h at 37° C. Cell viability was determined using formazan conversion assays (MTT assays). Controls were treated with USP saline or 0.1% TritonX-100™ as reference for 0 and 100% cell death, respectively. Cytotoxicity was evaluated as an IC50 value.
# human red blood cells = test: Hemolytic activity; type: cell-based
# Method: Hemolytic activity was studied by incubating the fusion constructs with human red blood cells at concentrations of 0.01, 0.1, 1, 10 and 50 μM for 2 hours. Saline and 0.1% Triton served as controls.
# Hemolytic activity of the compounds was studied by incubating EP-301 and EP-302 with human red blood cells at concentrations of 0.01, 0.1, 1, 10 and 50 μM for 2 hours.
# [2] = system: MDA-MB-435S breast cancer cells; type: cell-based, human; conditions: 6 h
# Method: as §1, with “EP-301 and EP-302 were analyzed for anti-cancer activity in vitro in a time course experiment against MDA-MB-435S breast cancer cells. EP-301 and EP-302” for “The peptide conjugates”, “0.25, 0.5, 1, 2, 4, 6 h or 24” for “4”, “value derived for EP-301 and EP-302 at each time point.” for “value.”
# [3] = system: MCF-10A (normal breast cells); type: cell-based; conditions: 24 h
# Method: as §1, with “EP-302 was” for “The peptide conjugates were”, “6 h or 24” for “4”, “value derived for EP-302 in each cell line.” for “value.”
# Daudi (NHL) = type: cell-based
# Method: as §1, with “EP-302 was” for “The peptide conjugates were”, “6 h or 24” for “4”, “value derived for EP-302 in each cell line.” for “value.”
# CHO (Hamster Ovary) = type: cell-based
# Method: as §1, with “EP-302 was” for “The peptide conjugates were”, “6 h or 24” for “4”, “value derived for EP-302 in each cell line.” for “value.”
# [4] = system: NIH-3T3 (mouse fibroblast cells); type: cell-based; conditions: 24 h
# Method: as §1, with “EP-302 was” for “The peptide conjugates were”, “6 h or 24” for “4”, “value derived for EP-302 in each cell line.” for “value.”
# [5] = system: MV4-11(Acute Myeloid Leukemia); type: cell-based; conditions: 24 h
# Method: as §1, with “EP-302 was” for “The peptide conjugates were”, “6 h or 24” for “4”, “value derived for EP-302 in each cell line.” for “value.”
# HT 116(Colon) = type: cell-based
# Method: as §1, with “EP-302 was” for “The peptide conjugates were”, “6 h or 24” for “4”, “value derived for EP-302 in each cell line.” for “value.”
# MDA-MB-231 (Breast) = type: cell-based
# Method: as §1, with “EP-302 was” for “The peptide conjugates were”, “6 h or 24” for “4”, “value derived for EP-302 in each cell line.” for “value.”
# HT 29 (Colon) = type: cell-based; conditions: 6 h
# Method: as §1, with “EP-302 was” for “The peptide conjugates were”, “6 h or 24” for “4”, “value derived for EP-302 in each cell line.” for “value.”
# MCF-7 (Breast) = type: cell-based
# Method: as §1, with “EP-302 was” for “The peptide conjugates were”, “6 h or 24” for “4”, “value derived for EP-302 in each cell line.” for “value.”
# OVCAR-3 (Ovary) = type: cell-based; conditions: 6 h
# Method: as §1, with “EP-302 was” for “The peptide conjugates were”, “6 h or 24” for “4”, “value derived for EP-302 in each cell line.” for “value.”
# SKOV-3 (Ovary) = type: cell-based
# Method: as §1, with “EP-302 was” for “The peptide conjugates were”, “6 h or 24” for “4”, “value derived for EP-302 in each cell line.” for “value.”
# A549 (Lung) = type: cell-based
# Method: as §1, with “EP-302 was” for “The peptide conjugates were”, “6 h or 24” for “4”, “value derived for EP-302 in each cell line.” for “value.”
# [6] = system: K562 (Chronic Myeloid Leukemia); type: cell-based; conditions: 24 h
# Method: as §1, with “EP-302 was” for “The peptide conjugates were”, “6 h or 24” for “4”, “value derived for EP-302 in each cell line.” for “value.”
# LoVo (Colon) = type: cell-based; conditions: 6 h
# Method: as §1, with “EP-302 was” for “The peptide conjugates were”, “6 h or 24” for “4”, “value derived for EP-302 in each cell line.” for “value.”
# DU145 (Prostate) = type: cell-based
# Method: as §1, with “EP-302 was” for “The peptide conjugates were”, “6 h or 24” for “4”, “value derived for EP-302 in each cell line.” for “value.”
# PC-3 (Prostate) = type: cell-based, human
# Method: as §1, with “EP-302 was” for “The peptide conjugates were”, “6 h or 24” for “4”, “value derived for EP-302 in each cell line.” for “value.”
# MDA-MB-435S (Breast) = type: cell-based, human
# Method: as §1, with “EP-302 was” for “The peptide conjugates were”, “6 h or 24” for “4”, “value derived for EP-302 in each cell line.” for “value.”
# MiaPaCa (Pancreas) = type: cell-based, human
# Method: as §1, with “EP-302 was” for “The peptide conjugates were”, “6 h or 24” for “4”, “value derived for EP-302 in each cell line.” for “value.”
# [7] = system: HL60 (Acute Myeloid Leukemia); type: cell-based, human; conditions: 24 h
# Method: as §1, with “EP-302 was” for “The peptide conjugates were”, “6 h or 24” for “4”, “value derived for EP-302 in each cell line.” for “value.”
# [8] = In vivo tolerability, repeat dose, nude mice; parameters: species or system mouse; conditions: 5 consecutive days; for Survival [%] Day 1 / Survival [%] Day 2* / Survival [%] Day 3 / Survival [%] Day 4 / Survival [%] Day 5: BalbC/nude mice
# Method: Body weight, blood chemistry and blood cell counts were measured. […] Blood parameters for CBC and serum chemistry were normal in treated mice of both groups.
# [9] = 5 and 10 mg/kg i.v., female nude mice
smiles,measurement,setting,value
CC(C)C[C@H](NC(=O)[C@H](CCCNC(=N)N)NC(=O)[C@H](C)NC(=O)[C@H](CO)NC(=O)[C@H](CCCNC(=N)N)NC(=O)[C@H](CCCNC(=N)N)NC(=O)[C@H](CCC(N)=O)NC(=O)[C@H](CC(C)C)NC(=O)[C@H](CCCNC(=N)N)NC(=O)[C@H](C)NC(=O)[C@H](CCCNC(=N)N)NC(=O)[C@H](CCCCN)NC(=O)[C@H](C)NC(=O)[C@H](Cc1ccccc1)NC(=O)[C@H](CCCCN)NC(=O)[C@H](CCCCN)NC(=O)[C@H](C)NC(=O)[C@H](Cc1ccccc1)NC(=O)[C@H](CCCCN)NC(=O)[C@H](C)NC(=O)[C@H](Cc1ccccc1)NC(=O)[C@H](CCCCN)NC(=O)[C@H](CCCCN)NC(=O)[C@H](C)NC(=O)[C@H](Cc1ccccc1)NC(=O)[C@H](CCCCN)NC(=O)[C@H](C)NC(=O)[C@H](Cc1ccccc1)NC(=O)[C@@H](N)CCCCN)C(=O)N[C@@H](CO)C(=O)N[C@@H](C)C(=O)N[C@@H](CCCCN)C(=O)O [EP-302] (H-KFAKFAKKFAKFAKKFAKRARLQRRSARLSAK-OH),IC50,[1],0.9 ± 0.05 µM
same,HA50,human red blood cells,Not hemolytic
same,IC50,[2],2.3 µM
same,IC50,[3],68 µM
same,IC50,Daudi (NHL); 6 h,3.2 ± 0.4 µM
same,IC50,Daudi (NHL); 24 h,2.5 ± 0.05 µM
same,IC50,CHO (Hamster Ovary); 6 h,3.1 ± 0.9 µM
same,IC50,CHO (Hamster Ovary); 24 h,3.7 ± 0.2 µM
same,IC50,[4],53 µM
same,IC50,[5],0.5 µM
same,IC50,HT 116(Colon); 6 h,6.7 ± 0.9 µM
same,IC50,HT 116(Colon); 24 h,4.8 ± 1.1 µM
same,IC50,MDA-MB-231 (Breast); 6 h,4.6 ± 0.9 µM
same,IC50,MDA-MB-231 (Breast); 24 h,3.6 ± 0.4 µM
same,IC50,HT 29 (Colon),45.8 ± 0.4 µM
same,IC50,MCF-7 (Breast); 6 h,5.5 ± 0.4 µM
same,IC50,MCF-7 (Breast); 24 h,6.4 ± 0.9 µM
same,IC50,OVCAR-3 (Ovary),5.2 ± 0.3 µM
same,IC50,SKOV-3 (Ovary); 6 h,5.1 ± 0.2 µM
same,IC50,SKOV-3 (Ovary); 24 h,5.2 ± 0.9 µM
same,IC50,A549 (Lung); 6 h,4.3 ± 0.6 µM
same,IC50,A549 (Lung); 24 h,2.4 ± 0.08 µM
same,IC50,[6],2.8 µM
same,IC50,LoVo (Colon),14.1 ± 0.5 µM
same,IC50,DU145 (Prostate); 6 h,3.1 ± 0.02 µM
same,IC50,DU145 (Prostate); 24 h,5.1 ± 0.1 µM
same,IC50,PC-3 (Prostate); 6 h,3.3 ± 0.3 µM
same,IC50,PC-3 (Prostate); 24 h,3.2 ± 0.8 µM
same,IC50,MDA-MB-435S (Breast); 6 h,1.4 ± 0.09 µM
same,IC50,MDA-MB-435S (Breast); 24 h,1.7 ± 0.2 µM
same,IC50,MiaPaCa (Pancreas); 6 h,2.1 ± 0.2 µM
same,IC50,MiaPaCa (Pancreas); 24 h,1.9 ± 0.1 µM
same,IC50,[7],0.5 µM
same,Survival [%] Day 1,[8]; 5 mg/kg i.v.,100 (5/5) %
same,Survival [%] Day 2*,[8]; 5 mg/kg i.v.,100 (5/5) %
same,Survival [%] Day 3,[8]; 5 mg/kg i.v.,100 (5/5) %
same,Survival [%] Day 4,[8]; 5 mg/kg i.v.,100 (5/5) %
same,Survival [%] Day 5,[8]; 5 mg/kg i.v.,100 (5/5) %
same,Survival [%] Day 1,[8]; 10 mg/kg i.v.,100 (5/5) %
same,Survival [%] Day 2*,[8]; 10 mg/kg i.v.,100 (5/5) %
same,Survival [%] Day 3,[8]; 10 mg/kg i.v.,100 (5/5) %
same,Survival [%] Day 4,[8]; 10 mg/kg i.v.,100 (5/5) %
same,Survival [%] Day 5,[8]; 10 mg/kg i.v.,100 (5/5) %
same,Blood parameters for CBC and serum chemistry,[8]; [9],normal
same,Body weight,[8]; [9],remained stable
same,Signs of toxicity / tolerability,[8]; [9],no signs of toxicity
